“Also recorded” adds a separate entry of the source.
How the values were obtained:
Assay type in all cases: cell-based, human
[1] = system: hESC and hiPSC (FES 29, HEL 11.4) attachment to ECA; assay: Validation of binding specificity: inhibition of cell attachment onto ECA; details: for inhibition of cell attachment onto ECA: 100 mM in culture media, attached cells counted after 20 h; for total number of attached cells with vs without pinacidil: on ECA, counted 20 h after plating
Experimental: Cells were passaged and plated as described earlier. The two compounds expected to act as specific binding inhibitors for ECA were lactose monohydrate (Sigma-Aldrich, 100 mM) and lacto-N-neotetraose (Kyowa Hakko Kogyo, 100 mM). Saccharose (Sigma-Aldrich, 100 mM) was used as a control. The inhibitors were added to culture media at the time of passaging and the attached cells were counted after 20 hours.
To assess the specificity of the cell-lectin interaction in supporting stem cell attachment to the growth surface, we performed inhibition experiments with specific disaccharide inhibitors and control disaccharides. […] The experiments were performed either in the presence (FIG. 4A) of absence (FIG. 4B) of pinacidil. Even if the effect of the inhibitors was similar in both conditions, the total number of attached cells was […] with pinacidil.
The attached cells were counted 20 h after plating. Data represent the mean (±SEM) of both cell lines, FES 29 and HEL 11.4. The total number of attached cells was 2-4 fold higher when Pinacidil was used (p<0.001).

[2] = system: hPSC lines FES29 and HEL 11.4; assay: Long-term culture of hPSC lines on ECA-coated plates (markers, qPCR array, karyotype); details: mEF conditioned media
Experimental: Cells were passaged by using 0.1 mg/ml collagenase IV (Invitrogen) for 5 min at +37° C. and harvested onto ECA (Sigma-Aldrich) and Matrigel (Becton Dickinson) coated plates and cultured either in StemPro® or in mEF conditioned-medium (CM) (KO-DMEM supplemented with 20% KO-SR, 2 mM Glutamax, 0.1 mM β-mercaptoethanol, 0.1 mM non-essential amino acids (NEAA), all from Invitrogen, Carlsbad, Calif., USA) and supplemented with 8 ng/ml recombinant human bFGF (Invitrogen, Carlsbad, Calif., USA). Pinacidil (Sigma-Aldrich, 100 μM) was added to culture media during passaging. In some experiments, Y-27632 (10 μM) was added to culture media during passaging. In all experiments MatrigelTM (BD Biosciences) was used as control matrix. The Matrigel plates were prepared as recommended by the manufacturer. […] Real time SYBR Green quantitative PCR (qPCR) analyses was performed with Corbett Rotor-Gene 6000 (Corbett Life Science, Sydney, Australia) using the following conditions: 95° C. […] The data was analyzed according to comparative Ct method (Applied Biosystems, User Bulletin #2). […] All samples and controls were analyzed in duplicates. […] Karyotype was detected by G-banding technique in cytogenetics laboratory of the […] […] Long-term culturing on ECA-coated plates was evaluated with hPSCs lines (FES29 and HEL 11.4) and the results were compared to the same cell lines cultured on Matrigel. […]

hPSC cells = assay: Clonogenicity assay on dispersed single cells; details: pinacidil 100 μM during passaging
Experimental: Cells were dissociated with TrypLE for 5 minutes and passed through an 80-μm cell strainer (Becton Dickinson). Dissociated single cells from either ECA or Matrigel were seeded onto both ECA and Matrigel (35 cells/cm^2) and cultured in mouse embryonic fibroblast-conditioned medium (CM) supplemented with 8 ng/ml basic fibroblast growth factor (bFGF). Pinacidil (100 μM) was used during passaging. To evaluate clonogenic capacity, cells were alkaline phosphatase stained and colony numbers were counted 10 days after plating.
The ability of the ECA matrix to support clonogenicity of hPSC cells was studied by plating dispersed cells first adapted to ECA or Matrigel for at least two passages on either of the two matrices at the density of 35 cells/cm^2.

SMILES: OC[C@H]1O[C@@](CO)(O[C@H]2O[C@H](CO)[C@@H](O)[C@H](O)[C@H]2O)[C@@H](O)[C@@H]1O [saccharose]
- inhibition of cell attachment onto ECA [1]: no inhibitory activity

SMILES: O.OC[C@H]1O[C@@H](O[C@H]2[C@H](O)[C@@H](O)C(O)O[C@@H]2CO)[C@H](O)[C@@H](O)[C@H]1O (some centres unmarked) [Lactose, lactose monohydrate]
- inhibition of cell attachment onto ECA ([1]; listed as lactose monohydrate, monohydrate): inhibited significantly
- inhibition of cell attachment onto ECA ([1]; monohydrate): inhibited cell attachment effectively

SMILES: CC(=O)N[C@H]1[C@H](O[C@H]2[C@@H](O)[C@@H](CO)O[C@@H](O[C@H]3[C@H](O)[C@@H](O)C(O)O[C@@H]3CO)[C@@H]2O)O[C@H](CO)[C@@H](O[C@@H]2O[C@H](CO)[C@H](O)[C@H](O)[C@H]2O)[C@@H]1O (mixture of isomers) [lacto-N-neotetraose]
- inhibition of cell attachment onto ECA [1]: as effective as lactose; also recorded: inhibited significantly

SMILES: CC(N/C(=N\C#N)Nc1ccncc1)C(C)(C)C (centres unmarked) [pinacidil]
- cell attachment and morphology on ECA without/with Rho-associated kinase inhibitor during passaging [2]: Without pinacidil the cells did not attach as effectively
- development and survival of single-cell derived clones (hPSC cells): highly useful
- total number of attached cells with vs without pinacidil [1]: 4 fold
- total number of attached cells with vs without pinacidil ([1]; listed as Pinacidil): 2-4 fold
